Legend:
[1] = The concentration of compound required to cause 50% hemolysis in the absence of complement; type: functional, Ovis aries
Homo sapiens = organism: Homo sapiens; test: The concentration of compound required to inhibit complement induced hemolysis by 50%; type: functional

| Structure (SMILES) | EC50 [1] | IC50 (Homo sapiens) |
| --- | --- | --- |
| COc1cc(C=O)cc2c1CC(C)(C)O2 | > 1460 µM | 1100 µM |
| COc1cc(C(=O)O)cc2c1CC(C)(C)O2 | > 1350 µM | > 1350 µM |
| C[C@@H]1CCC2C(C)(C)[C@H](O)[C@H](O)C[C@]2(C)[C@@]12Cc1c(O)cc(C(=O)O)c(C=O)c1O2 (some centres not stated) | > 680 µM |  |
| CC1(C)Cc2c(O)cc(C(=O)O)cc2O1 | > 1440 µM | > 1440 µM |
| CC1(C)Cc2c(Oc3ccccc3)cc(-c3nn[nH]n3)cc2O1 | 650 µM | 195 µM |
| CC1(C)Cc2c(Oc3ccccc3)cc(C=O)cc2O1 | > 1120 µM | > 1120 µM |
| CC1(C)Cc2c(O)cc(C=O)cc2O1 | > 1560 µM | > 1560 µM |
| COc1cc(-c2nn[nH]n2)cc2c1CC(C)(C)O2 | > 1220 µM | 245 µM |
| CC1(C)Cc2c(Oc3ccccc3)cc(C(=O)O)cc2O1 | > 1060 µM | > 1060 µM |
